Measured values reported in article PMC4859512, “Polyamino-Isoprenic Derivatives Block Intrinsic Resistance of P. aeruginosa to Doxycycline and Chloramphenicol In Vitro” (PLoS ONE, 2016).
Where “and” joins values, the source holds several entries; their conditions need not be identical. Identical values can stand only once.

How the values were obtained:
Format in all cases: cell-based, Pseudomonas aeruginosa
[1] = tested on: twenty clinical isolates of P. aeruginosa; assay: Combined antibiotic / polyamino-isoprenic derivative on MH agar plates, clinical isolates
Description: MH agar plates were prepared, containing 2 mg/L doxycycline and 2 mg/L doxycycline in combination with compounds at a concentration of 10 μM. Bacteria, 5 μL of a suspension of each clinical isolate adjusted to 5 x 10^5 colony-forming units per ml were spotted on each plate and growth was monitored after a 18 h period of incubation at 37°C.
PA01 is a well-studied reference strain of P. aeruginosa, however to extend our study we considered strains recently isolated from hospitalized patients. Thus, we decided to test this combination of doxycycline (2mg/L) with polyamino-isoprenic compounds (10 μM) on twenty clinical isolates recently isolated from the HIA-Laveran (see M&M section and S1 Table).

[2] = tested on: P. aeruginosa strains; assay: Synergy assays of compound 3 with representative anti-pseudomonal agents (summary in words, all strains)
Description: We concluded that compound 3 was the best compound and suitable for a more detailed study. The same experiment was performed using chloramphenicol (4 mg/L) in combination with 3 (10 μM final concentration). Amongst the 20 clinical isolates, the growth of 15 (75%) was impaired, while 5 (25%) were resistant (data not shown). These experiments were performed to study the effect of our compounds on the natural resistance of P. aeruginosa. In addition, we were wondering if compound 3 could also increase susceptibility to other antibiotic families including ß-Lactams, fluoroquinolones and aminoglycosides, that are representative of the main classes of anti-pseudomonal agents. Experiments were performed with the ß-lactams ceftazidime and ticarcillin and ciprofloxacin and amikacin. […]. […] To better characterize compound 3, we first searched for the minimum concentration of compound that allowed killing of bacteria by doxycycline, and PAßN was used as the reference molecule.

[3] = tested on: P. aeruginosa PA01; assay: Checkerboard assay with doxycycline; settings: PA01
Description: Serial two-fold dilutions of antimicrobial agents were mixed together in a microtiter plate. The range of concentration of each drug was twice the MIC, down to the eleventh serial two-fold dilutions below this amount. Doxycycline was serially diluted along the X-axis, and the polyamino-isoprenic compound or PAßN was diluted along the Y-axis as indicated. Each well was inoculated with a bacterial inoculum of 5 x 10^5 CFU/ml, and the plates were incubated at 37°C for 18 h under aerobic conditions. Each plate also contained a row and a column in which a serial dilution of polyamino-isoprenic compound or doxycycline, respectively, was present alone to determine the MIC. The FIC index was calculated as follows: FIC index = FIC A + FIC B, where FIC A is the MIC of drug A in the combination/MIC of drug A alone and FIC B is the MIC of drug B in the combination/MIC of drug B alone. The combination was considered synergistic when the FIC index is ≤0.5, and antagonistic when the FIC index is > 4 [26].

[4] = tested on: P. aeruginosa PA0-7H (Mex EF overproducer); assay: Antibiotic susceptibility testing (broth micro-dilution MIC), strain PA0-7H
[5] = tested on: P. aeruginosa strains over-expressing efflux pumps (PA01, PT629, PA01-ERY^R, PA0-7H, CMZ091, FB1); assay: Spotting of logarithmic dilutions on MH agar with antibiotic and compound 3
Description: In a second experiment, 5 μL of logarithmic dilutions of an overnight culture of the 6 strains described in Table 1 were spotted on the MH agar plates prepared as above. An additional assay was also performed with these 6 strains using chloramphenicol as antibiotic instead of doxycycline.
Fig 4 Compound 3 activity against P. aeruginosa strains over-expressing efflux pumps. The ability of bacteria to grow under various conditions was assessed in solid media containing, in a: 2 mg/L doxycycline (left) or a combination of 2 mg/L doxycycline and 10 μM compound 3 (right) and in b: 4 mg/L chloramphenicol (left) or a combination of 4 mg/L chloramphenicol and 10 μM compound 3 (right). 5 μL of logarithmic dilutions of an overnight culture of each strain were spotted on the plates. From top to bottom, PA01, PT629, PA01-ERY^R, PA0-7H, CMZ091 and FB1.

[6] = chloramphenicol 4 mg/L + compound 10 μM
[7] = doxycycline MIC in the combination 0.0625 µg/ml
[8] = doxycycline MIC in the combination 0.125 µg/ml
[9] = doxycycline MIC in the combination 0.25 µg/ml
[10] = doxycycline MIC in the combination 0.5 µg/ml
[11] = doxycycline MIC in the combination 1 µg/ml
[12] = doxycycline MIC in the combination 2 µg/ml
[13] = doxycycline MIC in the combination 4 µg/ml
[14] = doxycycline MIC in the combination 8 µg/ml
[15] = doxycycline MIC in the combination 16 µg/ml

For `CC(C)=CCCC(C)=CCCC(C)=CCNCCCNCCCCNCCCN` [Compound 3], the clinical isolates resistant [1, 6] was 25%, the “clinical isolates resistant (number of 20)” value [1, 6] was 5 and the “clinical isolates whose growth was impaired” value [1, 6] was 75%. The “clinical isolates whose growth was impaired (number of 20)” value ([1]; chloramphenicol 4 mg/L + compound 10 μM, data not shown) was 15, the “MIC ratio (doxycycline)” value ([1]; clinical isolates, with compound) was 32 and the “isolates with doxycycline susceptibility restored” value ([1]; doxycycline 2 mg/L + compound 10 μM, 20 clinical isolates) was “total susceptibility of all the considered isolates”. For the same molecule, the synergy with ciprofloxacin ([2]; all strains with the exception of PA0-7H) was “No synergistic effect”, the “effect of combination with ticarcillin” value ([2]; all the strains) was “slight effect” and the “effect on the MIC of amikacin” value ([2]; every strains) was “surprising increase of the MIC”. For the same molecule, the “Concentration of compound associated” value [3, 7] was 93.75 µM, the FIC index [3, 7] was 1 and the “Concentration of compound associated” value [3, 8] was 46.88 µM. For the same molecule, the Effect [3, 8] was “Synergistic (synergistic when the FIC index is ≤0.5)”, the FIC index [3, 8] was 0.50 and the “Concentration of compound associated” value [3, 9] was 23.44 µM. For the same molecule, the Effect [3, 9] was “Synergistic (synergistic when the FIC index is ≤0.5)”, the FIC index [3, 9] was 0.26 and the “Concentration of compound associated” value [3, 10] was 11.72 µM. For the same molecule, the Effect [3, 10] was “Synergistic (synergistic when the FIC index is ≤0.5)”, the FIC index [3, 10] was 0.14 and the “Concentration of compound associated” value [3, 11] was 5.86 µM. The Effect [3, 11] was “Synergistic (synergistic when the FIC index is ≤0.5)”, the FIC index [3, 11] was 0.09 and the “Concentration of compound associated” value [3, 12] was 2.93 µM. The Effect [3, 12] was “Synergistic (synergistic when the FIC index is ≤0.5)”, the FIC index [3, 12] was 0.09 and the “Concentration of compound associated” value [3, 13] was 2.93 µM. The Effect [3, 13] was “Synergistic (synergistic when the FIC index is ≤0.5)”, the FIC index [3, 13] was 0.16 and the “Concentration of compound associated” value [3, 14] was 0.73 µM. For the same molecule, the Effect [3, 14] was “Synergistic (synergistic when the FIC index is ≤0.5)”, the FIC index [3, 14] was 0.26 and the “Concentration of compound associated” value [3, 15] was 0.18 µM. For the same molecule, the Effect [3, 15] was “Synergistic (synergistic when the FIC index is ≤0.5)”, the FIC index [3, 15] was 0.50 and the “FIC index” value ([3]; combination with doxycycline) was 0.09. For the same molecule, the “decrease of MIC of ciprofloxacin” value ([4]; PA0-7H (overproduces MexEF), compound 10 µM) was 4 times, the “MIC of Amikacin in the presence of the compound” value ([4]; PA0-7H, compound 10µM) was 64 µg/mL and the “MIC of Ceftazidime in the presence of the compound” value ([4]; PA0-7H, compound 10µM) was 1 µg/mL. For the same molecule, the “MIC of Ciprofloxacin in the presence of the compound” value ([4]; PA0-7H, compound 10µM) was 1 µg/mL, the “MIC of Ticarcillin in the presence of the compound” value ([4]; PA0-7H, compound 10µM) was 4 µg/mL and the MIC ([4]; Pseudomonas aeruginosa, read-out: Minimal Inhibitory Concentration) was 25 µg/mL and 62.5 µM. The “dilution of overnight culture at which growth was observed” value ([5]; 2 μg/mL doxycycline + 10 μM compound 3, PA01 or strains overproducing MexCD or MexEF) was 10^−2, the “dilution above which no growth was observed” value ([5]; 2 μg/mL doxycycline + 10 μM compound 3, all cases) was 10^−5 and the “dilution of overnight culture at which growth was observed” value ([5]; 2 μg/mL doxycycline + 10 μM compound 3, cells overproducing MexAB or MexXY) was 10^−4. The growth on agar ([5]; 2 μg/mL doxycycline + 10 μM compound 3, ΔmexB strain) was “did not grow at any of the dilutions” and the “effect on growth with chloramphenicol” value ([5]; 4 mg/L chloramphenicol + 10 μM compound 3, PT629 and PA0-7H) was “slight effect”.
